According to patent US7022524B1, “Increasing plant growth with luminol” (The Regents of the University of California, Office of …, priority 1998, dated 2006):
Each block holds one molecule with its values, some of them ahead of it.

Assays:
alfalfa seedlings = assay: Net photosynthesis measured as radioactive 14CO2 incorporation in alfalfa seedlings; format: in vivo, Medicago sativa L.
Protocol: Twenty hours after treating alfalfa roots with purified compound D, 25% to 30% increases in net photosynthesis was effected, as measured by radioactive ^14CO2 incorporation tests. Purified compound D was supplied at approximately 100 pM in solution surrounding roots of three day old alfalfa seedlings. Net photosynthesis was measured as radioactive ^14CO2 incorporation by exposing randomized treatments of all plants simultaneously for about 15 minutes to ^14CO2 in a single chamber with thorough mixing of the chamber atmosphere. Data points were means from two to four replicates, each of which contained approximately 400 seedlings.
The isotopic assay for measuring net photosynthesis with ^14CO2 is described in Sheikholeslam (1980) Botanical Gazette 141:48-52. Briefly, to measure net photosynthesis, intact seedling are placed in a clear plastic box with direct exposure to sunlight or artificial lights. Isotopically labeled ^14CO2 is generated in the plant chamber by injecting an acid solution through a rubber stopper in the wall of the box and into a beaker containing ^14C-bicarbonate. The ^14CO2 released by that chemical reaction is distributed throughout the box with a fan. After 15 minutes of photosynthesis in the presence of ^14CO2, plants are frozen in liquid nitrogen and separated into roots, stems and leaves. The amount of ^14CO2 is measured in the various plant parts with a scintillation counter after chemical digestion of the plant matter.

R. meliloti 1021 = assay: Production of compounds D and Y by bacterial cultures in supplemented medium; format: cell-based, Rhizobium meliloti; conditions: culture medium supplemented at final concentration of 50 micromolar
[1] = test system: alfalfa (Medicago sativa L.) roots; assay: Root respiration (CO2 evolution / O2 uptake by gas chromatograph) of excised alfalfa roots after treating intact seedlings; format: in vivo
Protocol: Rhizobium meliloti 1021 (Rm1021) (Meade (1982) J. Bacteriol. 149:114-122) were grown to the early stationary phase in a defined minimal medium (as described in Vincent (1970) In “A Manual for the Practical Study of Root-Nodule Bacteria, Blackwell Scientific Publications, Oxford, UK). Bacteria were collected by centrifugation and washed three times with sterile water before roots were inoculated. UV irradiance for killing cells in some experiments was supplied as a 25 minute treatment with a transilluminator(model T1202, Sigma). The absence of living cells in UV-killed cultures and sterile, non-inoculated control treatments was verified by plating on tryptone yeast medium.
If respiration is to be measured, it is important that the plants be grown under sterile conditions for the respiration measurements (see, e.g., Guri, et al., U.S. Pat. No. 5,503,652, describing compositions and methods to prevent microbial contamination of plant tissue culture media). Seeds of alfalfa (Medicago sativa L. cv Moapa 69) were surface sterilized for 15 minutes in 70% ethanol, rinsed with water, and allowed to imbibe for four hours with aeration before germinating in a hydroponic system (as in Maxwell (1989) Plant Physiol. 91:842-847) containing nitrogen free nutrient solution (see DeJong (1981) Plant Physiol. 68:309-313). Each 400 mL plastic box contained one gram of seeds and produced about 400 seedlings after being maintained in a sterile manner for about three days with aeration at 25° C. under indirect sunlight supplemented with fluorescent lights. Plants used in these experiments consisted of cotyledons and roots with an occasional primary leaf.
Experiments used 5×10^7 colony-forming units (CFU) of bacteria per mL of plant nutrient solution unless otherwise noted. Bacteria were harvested from their growth medium, washed twice in sterile water, suspended in 1 mL of water and added to the plant nutrient solution of alfalfa seedlings 3 days after germination, when roots were approximately 4-cm long. Sterile water (1 mL) was added to the sterile non-inoculated controls. Plants were harvested to measure root respiration at various times, depending of the experiment. At harvest, roots were excised, blotted briefly on a paper towel, weighed, and enclosed in a 10-mL gas-tight test tube. Each replicate contained 1 gram fresh wt of roots from about 200 plants; every experiment had three or four replicates; and all experiments were repeated at least twice.
All assays were conducted for 30 minutes immediately after excision. Changes in CO2, and in some experiments O2, were measured at 45° C. with a thermistor detector on a Sigma 4 gas chromatograph equipped with a column (3.05 m×3.2 mm) containing Chromosorb 102 for CO2 and Molecular Sieve 5A for O2. Helium was used as the carrier gas at flow rates of 15 cm^3/min for O2 and 35 cm^3/min for CO2. The change in gas composition during the first 30 min after the roots were enclosed in the assay tubes (described above) was used to calculate respiration rates. Data were analyzed with standard statistical methods to determine SE or LSD0.05 values for comparisons of treatment effects by Student's t test or analysis of variance (see, e.g., Steel et al., (1960) Principles and Procedures of Statistics. McGraw-Hill, N.Y.).
Moapa 69′ alfalfa seeds for all experiments were soaked 30 min in 70% ethanol, rinsed with sterile water, treated 5 min in concentrated H2SO4, rinsed with sterile water, soaked 30 min in commercial bleach and then washed with sterile water. For respiration tests approximately 400 seeds (1 gram) were germinated on a 10×10-cm screen above a hydroponic nutrient solution, see Volpin (1998) Plant Physiol. 116:777-783. In some hydroponic experiments the nutrient solution was supplemented to contain ampicillin (125 mg/L) and rifampicin (10 mg/L). Plant growth experiments were done in sterile pots (10×10×10 cm) containing vermiculite. […]

alfalfa = assay: Plant growth (dry weight of shoots and roots) of alfalfa after root or seed treatment; format: in vivo, Medicago sativa L.
Protocol: In another experiment, treating alfalfa seedling roots with purified compound D at a presumed concentration of about 100 pM every 48 hours for 10 days increased the final shoot dry mass (as determined by weighing) 10% relative to untreated control plants.
Moapa 69′ alfalfa seeds for all experiments were soaked 30 min in 70% ethanol, rinsed with sterile water, treated 5 min in concentrated H2SO4, rinsed with sterile water, soaked 30 min in commercial bleach and then washed with sterile water. For respiration tests approximately 400 seeds (1 gram) were germinated on a 10×10-cm screen above a hydroponic nutrient solution, see Volpin (1998) Plant Physiol. 116:777-783. In some hydroponic experiments the nutrient solution was supplemented to contain ampicillin (125 mg/L) and rifampicin (10 mg/L). Plant growth experiments were done in sterile pots (10×10×10 cm) containing vermiculite. The pots were watered with the hydroponic nutrient solution (Volpin (1998) supra) supplemented to contain 1 mM NH4NO3 and various lumichrome treatments every second day. In all experiments, plants were grown under controlled conditions using a 12/12-hour day/night photoperiod and a 25/20° C. temperature regime with a photon flux density (400-700 nm) of 250 μmol/m^2-s.
Lumichrome effects on plant growth were tested by treating roots or seeds. Surface-sterilized seeds were soaked 2 hours in either 0 or 5 nM lumichrome. Then 50 seeds were planted in vermiculite in each pot. Plants germinating from untreated seeds received nutrient solution containing 0, 5 or 50 nM lumichrome. Plants developing from seeds soaked in 5 nM lumichrome were watered with lumichrome-free nutrient solution. Pots were covered initially with a clear, plastic wrap, which was removed after 6 days. Plants were harvested 12 days after germination, and roots and shoots were separated, dried, and weighed.

[2] = Stability to light and heat; format: physicochemical; conditions: e.g., 40° C.
[3] = Solubility and hydrophobicity; format: physicochemical; conditions: for solubility during purification: all solvents; for solubility: purified compounds, water, methanol; for hydrophobicity: removed from aqueous solution in C18 resin
[4] = about 100 pM to seedling roots every 48 hours for 10 days

Compound: CC(=O)c1c(O)cc(O)c(C(C)=O)c1O [diacetylphloroglucinol, 2,4-diacetyl-1,3,5-benzenetriol]
increase in net photosynthesis in plants (alfalfa seedlings; applied to roots in nanomolar concentrations): ≤ 50% | effect on the production of compound Y (R. meliloti 1021): no consistent effect

stability to light and heat [2]: degraded by light and heat | solubility during purification [3]: Solubility problems | solubility [3]: soluble in both water and methanol | hydrophobicity [3]: moderately hydrophobic
Compound: Cc1cc2nc3[nH]c(=O)[nH]c(=O)c3nc2cc1C [lumichrome, 7,8,-dimethylalloxazine]
increase in root respiration ([1]; 3 to 50 nM treatments of alfalfa roots, several experiments, P≦0.05): 11% to 30% | increase in root respiration ([1]; alfalfa roots treated with 3 nM, within 48 hours, P≦0.05): 21% | time for the (slower) increase in root respiration ([1]; in vivo): greater than 4 hours | increase in root respiration ([1]; intact root systems exposed 39 hours, 3 nM lumichrome or S. meliloti cells 10^7 cfu/ml, P≦0.05): 21% | increase in net photosynthesis over untreated control (alfalfa seedlings; approximately 100 pM around roots of three day old seedlings, 20 hours after treating roots): 25% to 30% | time to peak of 14CO2 incorporation (alfalfa seedlings; no more than 100 pM): 5 to 10 h | increase in net photosynthesis above untreated controls (alfalfa seedlings; no more than 100 pM, 8 hour time point after treating roots): 45% to 75% | 14CO2 incorporation (alfalfa seedlings; no more than 100 pM, after approximately 20 hours): about 2.0 ^14CO2 cpm×10^5 per gram cotyledon | 14CO2 incorporation, peak (alfalfa seedlings; no more than 100 pM, peak after about 5 to 10 hours, negative control about 1.5): 2.5 to 2.75 ^14CO2 cpm×10^5 per gram cotyledon | increase in plant growth (alfalfa; 5 nM applied to young alfalfa roots, after 12 days, P≦0.05): 8% | change in root dry weight (alfalfa; [4]): no increase in root dry weight | increase in final shoot dry mass relative to untreated control plants (alfalfa; [4]): 10% | increase in plant growth (alfalfa; alfalfa seeds soaked in 5 nM before germination, 12 days, P≦0.01): 18% | root mass relative to control (alfalfa; lumichrome-treated plants, 12 days): numerically, but not significantly, larger | increase in shoot dry weight relative to control shoots (alfalfa; root drench 5 nM, 12 days, P≦0.05): 7% | increase in shoot dry weight relative to control shoots (alfalfa; root drench 50 nM, 12 days, P≦0.01): 12% | increase in dry matter on a whole-plant basis (alfalfa; roots exposed or seeds immersed before germination, P≦0.05): 8% to 18% | increase in shoot dry weight relative to control shoots (alfalfa; seed soaking 5 nM, 12 days, P≦0.01): 18%

Compound: CC(=O)c1c(O)cc(O)cc1O [monoacetylphloroglucinol]
effect on the production of compound Y (R. meliloti 1021): no consistent effect

Compound: Oc1cc(O)cc(O)c1 [phloroglucinol, reference compound]
effect on the production of compound Y (R. meliloti 1021): no consistent effect

stability to light and heat [2]: degraded by light and heat | solubility during purification [3]: only marginally better | solubility [3]: soluble in both water and methanol | hydrophobicity [3]: moderately hydrophobic
Compound: Cc1cc2nc3c(=O)[nH]c(=O)nc-3n(C[C@H](O)[C@H](O)[C@H](O)CO)c2cc1C [riboflavin]
increase in root respiration compared with lumichrome ([1]; 200 nM riboflavin, one test): approximately the same increase in root respiration as 30 nM lumichrome | increase in root respiration ([1]; very low (e.g., picomolar) concentrations, various experiments): 11% to 31% | enhancement of net photosynthesis (alfalfa seedlings; very low (e.g., picomolar) concentrations): ≤ 7%
